Laboratory results published in patent publication US20260184710A1, “CASITAS B-LINEAGE LYMPHOMA PROTOONCOGENE B (CBL-B) DEGRADING COMPOUNDS AND ASSOCIATED METHODS OF USE” (Arvinas Operations, Inc., priority 2022, published 2026).

Molecular target: T1, Cbl-b (Homo sapiens, UniProt Q13191)
T1 construct: Cbl-b-HiBit KI Jurkat Cells were purchased from Promega; host or cells: Cbl-b-HiBiT knock-in Jurkat cells
Assay: Cbl-b Degradation Method B (Nano-Glo HiBiT lytic detection)
Type: cell-based
Conditions: Cbl-b-HiBit KI Jurkat Cells, incubated at least 6-24 hours; for DC50: half maximal degradation, read-out: Cbl-b Degredation Method B IC50; for Dmax: maximum degradation observed, read-out: Cbl-b Degredation Method B Dmax (%)
Procedure, shortened: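 Cbl-b-HiBiT knock-in Jurkat cells (20,000/well) were treated after ~24 h plating with an 11-point 1:3 series for 6-24 h at 37° C. Remaining Cbl-b measured by Nano-Glo HiBiT lytic luminescence. DC50 and Dmax expressed as % of control.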

T1 sequence (Q13191 whole entry): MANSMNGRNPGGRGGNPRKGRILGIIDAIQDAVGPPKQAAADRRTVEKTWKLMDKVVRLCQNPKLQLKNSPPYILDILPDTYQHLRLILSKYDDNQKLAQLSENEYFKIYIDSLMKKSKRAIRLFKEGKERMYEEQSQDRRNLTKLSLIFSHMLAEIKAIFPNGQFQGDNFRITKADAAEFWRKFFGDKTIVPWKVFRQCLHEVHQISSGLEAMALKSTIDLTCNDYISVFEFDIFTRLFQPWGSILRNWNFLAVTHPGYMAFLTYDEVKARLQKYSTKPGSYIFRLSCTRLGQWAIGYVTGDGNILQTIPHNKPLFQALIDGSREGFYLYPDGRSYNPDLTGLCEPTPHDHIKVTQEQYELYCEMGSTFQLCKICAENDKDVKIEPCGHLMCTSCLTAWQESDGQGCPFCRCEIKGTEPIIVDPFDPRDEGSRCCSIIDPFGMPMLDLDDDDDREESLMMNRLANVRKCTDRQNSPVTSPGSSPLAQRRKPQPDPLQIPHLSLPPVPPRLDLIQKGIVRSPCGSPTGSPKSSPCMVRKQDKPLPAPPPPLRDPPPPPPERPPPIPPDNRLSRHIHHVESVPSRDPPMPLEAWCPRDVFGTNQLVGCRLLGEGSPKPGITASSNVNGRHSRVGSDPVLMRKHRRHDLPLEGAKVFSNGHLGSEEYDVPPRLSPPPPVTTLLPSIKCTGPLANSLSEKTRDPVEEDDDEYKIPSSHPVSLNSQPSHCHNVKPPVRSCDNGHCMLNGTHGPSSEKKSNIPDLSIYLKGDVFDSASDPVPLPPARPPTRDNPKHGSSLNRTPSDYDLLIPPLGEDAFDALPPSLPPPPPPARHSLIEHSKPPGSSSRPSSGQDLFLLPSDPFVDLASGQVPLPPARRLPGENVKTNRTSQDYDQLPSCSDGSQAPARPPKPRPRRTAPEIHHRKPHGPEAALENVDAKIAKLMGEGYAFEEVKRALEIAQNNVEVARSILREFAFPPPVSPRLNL

DC50	Dmax	Compound
> 0.5 µM	–	CC1c2nc(N3CCC(O[C@H]4CC[C@H](CN5CCN(Cc6cc(C(F)(F)F)c7c(n6)C(=O)N(c6cccc(C8(Cc9nncn9C)COC8)c6)C7)CC5)CC4)CC3)ccc2C(=O)N1C1CCC(=O)NC1=O (stereo partly shown) [Example 282, 3-[7-methyl-2-[4-[4-[[4-[[6-[3-[3-[(4-methyl-1,2,4-triazol-3-yl)methyl]oxetan-3-yl]phenyl]-7-oxo-4-(trifluoromethyl)-5H-pyrrolo[3,4-b]pyridin-2-yl]methyl]piperazin-1-yl]methyl]cyclohexoxy]-1-piperidyl]-5-oxo-7Hpyrrolo[3,4-b]pyridin-6-yl]piperidine-2,6-dione]
> 0.5 µM	–	COc1cc(N2CCN(Cc3cc4c(c(C(F)(F)F)c3)CN(c3cccc(C5(Cc6nncn6C)COC5)c3)C4=O)CC2)cc2c1C(=O)N(C1CCC(=O)NC1=O)C2=O (stereo not shown) [Example 52, 2-(2,6-dioxopiperidin-3-yl)-4-methoxy-6-(4-{[2-(3-{3-[(4-methyl-4H-1,2,4-triazol-3-yl)methyl]oxetan-3-yl}phenyl)-3-oxo-7-(trifluoromethyl)-2,3-dihydro-1H-isoindol-5-yl]methyl}piperazin-1-yl)-2,3-dihydro-1H-isoindole-1,3-dione]
0.005 to 0.05 µM	35 to 70%	Cc1cc(N2C[C@@H]3C[C@H]2CN3CC2CCC3(CC2)CN(c2cc4c(c(C(F)(F)F)c2)CN(c2cccc([C@]5(Cc6nncn6C)C[C@@H](C#N)C5)c2)C4=O)C3)c(F)c2c1C(=O)N(C1CCC(=O)NC1=O)C2 (stereo partly drawn) [Example 271, (1r,3r)-3-{3-[6-(7-{[(1S,4S)-5-[2-(2,6-dioxopiperidin-3-yl)-4-fluoro-7-methyl-1-oxo-2,3-dihydro-1H-isoindol-5-yl]-2,5-diazabicyclo[2.2.1]heptan-2-yl]methyl}-2-azaspiro[3.5]nonan-2-yl)-1-oxo-4-(trifluoromethyl)-2,3-dihydro-1H-isoindol-2-yl]phenyl}-3-[(4-methyl-4H-1,2,4-triazol-3-yl)methyl]cyclobutane-1-carbonitrile]
> 0.5 µM	–	Cc1cc(N2CCC(CN3CCCN(c4cc5c(c(C(F)(F)F)c4)CN(c4cccc([C@]6(Cc7nncn7C)C[C@@H](C#N)C6)c4)C5=O)CC3)CC2)c(F)c2c1C(=O)N(C1CCC(=O)NC1=O)C2 (stereo partly shown) [Example 170, (1r,3r)-3-(3-{6-[4-({1-[2-(2,6-dioxopiperidin-3-yl)-4-fluoro-7-methyl-1-oxo-2,3-dihydro-1H-isoindol-5-yl]piperidin-4-yl}methyl)-1,4-diazepan-1-yl]-1-oxo-4-(trifluoromethyl)-2,3-dihydro-1H-isoindol-2-yl}phenyl)-3-[(4-methyl-4H-1,2,4-triazol-3-yl)methyl]cyclobutane-1-carbonitrile]
0.005 to 0.05 µM	< 35%	Cn1cnnc1C[C@]1(c2cccc(-n3cc4c(C(F)(F)F)cc(N5CC6(CCN(CC7CCN(c8ccc9c(c8Cl)CN(C8CCC(=O)NC8=O)C9=O)CC7)CC6)C5)cc4n3)c2)C[C@H](C#N)C1 (stereo partly shown) [Example 262, (1r,3r)-3-(3-{6-[7-({1-[4-chloro-2-(2,6-dioxopiperidin-3-yl)-1-oxo-2,3-dihydro-1H-isoindol-5-yl]piperidin-4-yl}methyl)-2,7-diazaspiro[3.5]nonan-2-yl]-4-(trifluoromethyl)-2H-indazol-2-yl}phenyl)-3-[(4-methyl-4H-1,2,4-triazol-3-yl)methyl]cyclobutane-1-carbonitrile]
0.005 to 0.05 µM	35 to 70%	CC1c2nc(N3CCC(O[C@H]4CC[C@H](CN5CCN(Cc6ccc7c(n6)C(=O)N(c6cccc(C8(Cc9nncn9C)COC8)c6)C7)CC5)CC4)CC3)ccc2C(=O)N1C1CCC(=O)NC1=O (stereo partly shown) [Example 151, 3-[7-methyl-2-[4-[4-[[4-[[6-[3-[3-[(4-methyl-1,2,4-triazol-3-yl)methyl]oxetan-3-yl]phenyl]-7-oxo-5H-pyrrolo [3,4-b]pyridin-2-yl]methyl]piperazin-1-yl]methyl]cyclohexoxy]-1-piperidyl]-5-oxo-7H-pyrrolo [3,4-b]pyridin-6-yl]piperidine-2,6-dione]
> 0.5 µM	–	Cn1cnnc1CC1(c2cccc(N3Cc4c(cc(CN5CCCC(OC6CCN(c7ccc8c(c7F)CN(C7CCC(=O)NC7=O)C8=O)CC6)C5)cc4C(F)(F)F)C3=O)c2)COC1 (stereo not shown) [Example 156, 3-(4-fluoro-5-{4-[(1-{[2-(3-{3-[(4-methyl-4H-1,2,4-triazol-3-yl)methyl]oxetan-3-yl}phenyl)-3-oxo-7-(trifluoromethyl)-2,3-dihydro-1H-isoindol-5-yl]methyl}piperidin-3-yl)oxy]piperidin-1-yl}-1-oxo-2,3-dihydro-1H-isoindol-2-yl)piperidine-2,6-dione]
< 0.005 µM	> 70%	C[C@@H]1CN(Cc2cc3c(c(C(F)(F)F)c2)CN(c2cccc(C4(Cc5nncn5C)COC4)c2)C3=O)CCN1C[C@H]1CC[C@H](OC2CCN(c3ccc4c(c3F)CN(C3CCC(=O)NC3=O)C4=O)CC2)CC1 (stereo partly drawn) [Example 244, 3-[4-fluoro-1-oxo-5-(4-{[(1r*,4r*)-4-{[(2R)-2-methyl-4-{[2-(3-{3-[(4-methyl-4H-1,2,4-triazol-3-yl)methyl]oxetan-3-yl}phenyl)-3-oxo-7-(trifluoromethyl)-2,3-dihydro-1H-isoindol-5-yl]methyl}piperazin-1-yl]methyl}cyclohexyl]oxy}piperidin-1-yl)-2,3-dihydro-1H-isoindol-2-yl]piperidine-2,6-dione]
0.005 to 0.05 µM	< 35%	Cn1cnnc1C[C@]1(c2cccc(N3Cc4c(cc(N5CC6(CCN(C(=O)C7CCN(c8ccc9c(c8)C(=O)N(C8CCC(=O)NC8=O)C9=O)CC7)CC6)C5)cc4C(F)(F)F)C3=O)c2)C[C@H](C#N)C1 (stereo partly shown) [Example 146, 3-[3-[6-[7-[1-[2-(2,6-dioxo-3-piperidyl)-1,3-dioxo-isoindolin-5-yl]piperidine-4-carbonyl]-2,7-diazaspiro[3.5]nonan-2-yl]-1-oxo-4-(trifluoromethyl)isoindolin-2-yl]phenyl]-3-[(4-methyl-1,2,4-triazol-3-yl)methyl]cyclobutanecarbonitrile]
< 0.005 µM	35 to 70%	CC1c2nc(N3CCC(O[C@H]4CC[C@H](CN5CCN(Cc6cc7c(c(C(F)(F)F)c6)CN(c6cccc([C@]8(Cc9nncn9C)C[C@@H](C#N)C8)c6)C7=O)C(C)(C)C5)CC4)CC3)ccc2C(=O)N1C1CCC(=O)NC1=O (stereo partly shown) [Example 152, 3-[3-[6-[[4-[[4-[[1-[6-(2,6-dioxo-3-piperidyl)-7-methyl-5-oxo-7H-pyrrolo[3,4-b]pyridin-2-yl]-4-piperidyl]oxy]cyclohexyl]methyl]-2,2-dimethyl-piperazin-1-yl]methyl]-1-oxo-4-(trifluoromethyl)isoindolin-2-yl]phenyl]-3-[(4-methyl-1,2,4-triazol-3-yl)methyl]cyclobutanecarbonitrile]
> 0.5 µM	–	Cn1cnnc1CC1(c2cccc(N3Cc4c(cc(CN5CCC(C6CCN(c7ccc8c(c7)C(=O)N(C7CCC(=O)NC7=O)C8=O)CC6)CC5)cc4C(F)(F)F)C3=O)c2)COC1 (stereo not shown) [Example 26, 2-(2,6-dioxopiperidin-3-yl)-5-(1′-{[2-(3-{3-[(4-methyl-4H-1,2,4-triazol-3-yl)methyl]oxetan-3-yl}phenyl)-3-oxo-7-(trifluoromethyl)-2,3-dihydro-1H-isoindol-5-yl]methyl}-[4,4′-bipiperidin]-1-yl)-2,3-dihydro-1H-isoindole-1,3-dione]
< 0.005 µM	35 to 70%	CC1c2nc(N3CCC(O[C@H]4CC[C@H](CN5C[C@H]6C[C@@H]5CN6Cc5cc6c(c(C(F)(F)F)c5)CN(c5cccc(C7(Cc8nncn8C)CCC7)c5)C6=O)CC4)CC3)ccc2C(=O)N1C1CCC(=O)NC1=O (stereo partly drawn) [Example 225, 3-[7-methyl-5-oxo-2-(4-{[(1r,4r)-4-{[(1R,4R)-5-{[2-(3-{1-[(4-methyl-4H-1,2,4-triazol-3-yl)methyl]cyclobutyl}phenyl)-3-oxo-7-(trifluoromethyl)-2,3-dihydro-1H-isoindol-5-yl]methyl}-2,5-diazabicyclo[2.2.1]heptan-2-yl]methyl}cyclohexyl]oxy}piperidin-1-yl)-5H,6H,7H-pyrrolo[3,4-b]pyridin-6-yl]piperidine-2,6-dione]
< 0.005 µM	> 70%	C[C@H]1CN(CC2CCC(OC3CCN(c4ccc5c(c4F)CN(C4CCC(=O)NC4=O)C5=O)CC3)CC2)[C@@H](C)CN1Cc1cc2c(c(C(F)(F)F)c1)CN(c1cccc(C3(Cc4nncn4C)COC3)c1)C2=O (stereo partly drawn) [Example 242, 3-[4-fluoro-1-oxo-5-(4-{[(1rs,4rs)-4-{[(2S,5S)-2,5-dimethyl-4-{[2-(3-{3-[(4-methyl-4H-1,2,4-triazol-3-yl)methyl]oxetan-3-yl}phenyl)-3-oxo-7-(trifluoromethyl)-2,3-dihydro-1H-isoindol-5-yl]methyl}piperazin-1-yl]methyl}cyclohexyl]oxy}piperidin-1-yl)-2,3-dihydro-1H-isoindol-2-yl]piperidine-2,6-dione]

Compound	DC50	Dmax
Cn1cnnc1CC1(c2cccc(N3Cc4c(cc(CN5CCN(CCN(C)[C@H]6C[C@H](Oc7ccc8c(c7)C(=O)N(C7CCC(=O)NC7=O)C8=O)C6)CC5)cc4C(F)(F)F)C3=O)c2)COC1 (stereo partly shown) [Example 63, 2-(2,6-dioxopiperidin-3-yl)-5-[(1r,3r)-3-{methyl[2-(4-{[2-(3-{3-[(4-methyl-4H-1,2,4-triazol-3-yl)methyl]oxetan-3-yl}phenyl)-3-oxo-7-(trifluoromethyl)-2,3-dihydro-1H-isoindol-5-yl]methyl}piperazin-1-yl)ethyl]amino}cyclobutoxy]-2,3-dihydro-1H-isoindole-1,3-dione]	> 0.5 µM	–
